Measurements taken from the supplement of paper PMC9663587.

What was measured:
Paclitaxel = compound: CC(=O)O[C@H]1C(=O)[C@@]2(C)[C@H]([C@H](OC(=O)c3ccccc3)[C@]3(O)C[C@H](OC(=O)[C@H](O)[C@@H](NC(=O)c4ccccc4)c4ccccc4)C(C)=C1C3(C)C)[C@]1(OC(C)=O)CO[C@@H]1C[C@@H]2O [Paclitaxel]
BSJ-03-123 [1] = compound: T1, CC(=O)c1c(C)c2cnc(Nc3ccc(N4CCN(CCOCCOCCOCCNC(=O)COc5cccc6c5C(=O)N(C5CCC(=O)NC5=O)C6=O)CC4)cn3)nc2n(C2CCCC2)c1=O [BSJ-03-123]
Flavopiridol [2] = compound: T2, CN1CC[C@H](c2c(O)cc(O)c3c(=O)cc(-c4ccccc4Cl)oc23)[C@H](O)C1 [Flavopiridol]
BVD523 = compound: CC(C)Nc1cc(-c2c[nH]c(C(=O)N[C@H](CO)c3cccc(Cl)c3)c2)c(Cl)cn1 [BVD523]
R0-3306 = compound: C1=CC2=C(C=CC(=C2)C=C3C(=O)NC(=NCC4=CC=CS4)S3)N=C1 [R0-3306]
[3] = compound: CO[C@@H](C)Cn1c(=O)n(C)c2cnc3ccc(-c4cncc(C(C)(C)O)c4)cc3c21
Neratinib/HKI272 = compound: CCOc1cc2ncc(C#N)c(Nc3ccc(OCc4ccccn4)c(Cl)c3)c2cc1NC(=O)/C=C/CN(C)C [Neratinib/HKI272]
[4] = compound: CCC1=CN=CN=C1N2CCN(CC2)CC3=NC4=C(N3)C=C(C=C4)C(F)(F)F
AZD5363 = compound: NC1(C(=O)N[C@@H](CCO)c2ccc(Cl)cc2)CCN(c2nc[nH]c3nccc2-3)CC1 [AZD5363]
YKL-5-124 = compound: C=CC(=O)Nc1ccc(C(=O)Nc2[nH]nc3c2CN(C(=O)N[C@H](CN(C)C)c2ccccc2)C3(C)C)cc1 [YKL-5-124]; experiment: GR value, 72 h; higher = faster growth (1 = untreated, <0 = killing);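 further: breast cancer and non-malignant breast epithelial lines, nine half-log doses, viable cells counted by Hoechst and LIVE/DEAD dye imaging versus time-zero plates and DMSO controls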
BSJ-03-123 [5] = compound: T1, BSJ-03-123; experiment: as above
THZ1 = compound: CN(C)C/C=C/C(=O)Nc1ccc(C(=O)Nc2cccc(Nc3ncc(Cl)c(-c4c[nH]c5ccccc45)n3)c2)cc1 [THZ1]; experiment: as above
Flavopiridol [6] = compound: T2, Flavopiridol; experiment: as above
[7] = compound: CCc1cnn2c(NCc3ccc[n+]([O-])c3)cc(N3CCCC[C@H]3CCO)nc12; experiment: as above
LEE011/Ribociclib = compound: CN(C)C(=O)c1cc2cnc(Nc3ccc(N4CCNCC4)cn3)nc2n1C1CCCC1 [LEE011/Ribociclib]; experiment: as above
THZ531 = compound: CN(C)C/C=C/C(=O)Nc1ccc(C(=O)N2CCC[C@@H](Nc3ncc(Cl)c(-c4c[nH]c5ccccc45)n3)C2)cc1 [THZ531]; experiment: as above
[8] = compound: CCN1CCN(Cc2ccc(Nc3ncc(F)c(-c4cc(F)c5nc(C)n(C(C)C)c5c4)n3)nc2)CC1; experiment: as above
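Wherever GR50, 72 h is given: breast cancer and non-malignant breast epithelial cell lines, Deep Dye Drop or Dye Drop imaging, nine half-log doses, GR normalized to time-zero plates and DMSO-only controls.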

Cell Line: SUM229PE
- GR50, 72 h (Paclitaxel): 0.00176 µM
- GR50, 72 h (BSJ-03-123 [1]): 1.64 µM
- GR50, 72 h (Flavopiridol [2]): 0.109 µM
- GR50, 72 h (BVD523): 1.6 µM
- GR50, 72 h (R0-3306): 6.23 µM
- GR50, 72 h [3]: 0.453 µM
- GR50, 72 h (Neratinib/HKI272): 0.419 µM
- GR50, 72 h [4]: > 10 µM
- GR50, 72 h (AZD5363): > 10 µM
- GR value (YKL-5-124; 0.001 µM): 0.467 GR
- GR value (YKL-5-124; 0.003162 µM): 0.321 GR
- GR value (YKL-5-124; 0.01 µM): 0.295 GR
- GR value (YKL-5-124; 0.03162 µM): 0.291 GR
- GR value (YKL-5-124; 0.1 µM): 0.27 GR
- GR value (YKL-5-124; 0.3162 µM): 0.225 GR
- GR value (YKL-5-124; 1 µM): 0.238 GR
- GR value (YKL-5-124; 3.162 µM): 0.17 GR
- GR value (YKL-5-124; 10 µM): -0.0733 GR
- GR value (BSJ-03-123 [5]; 0.001 µM): 0.887 GR
- GR value (BSJ-03-123 [5]; 0.003162 µM): 0.881 GR
- GR value (BSJ-03-123 [5]; 0.01 µM): 0.87 GR
- GR value (BSJ-03-123 [5]; 0.03162 µM): 0.857 GR
- GR value (BSJ-03-123 [5]; 0.1 µM): 0.758 GR
- GR value (BSJ-03-123 [5]; 0.3162 µM): 0.785 GR
- GR value (BSJ-03-123 [5]; 1 µM): 0.568 GR
- GR value (BSJ-03-123 [5]; 3.162 µM): 0.497 GR
- GR value (BSJ-03-123 [5]; 10 µM): 0.114 GR
- GR value (THZ1; 0.0001 µM): 1 GR
- GR value (THZ1; 0.0003162 µM): 1 GR
- GR value (THZ1; 0.001 µM): 1.04 GR
- GR value (THZ1; 0.003162 µM): 0.953 GR
- GR value (THZ1; 0.01 µM): 0.65 GR
- GR value (THZ1; 0.03162 µM): 0.283 GR
- GR value (THZ1; 0.1 µM): -0.0615 GR
- GR value (THZ1; 0.3162 µM): -0.216 GR
- GR value (THZ1; 1 µM): -0.297 GR
- GR value (Flavopiridol [6]; 0.0001 µM): 0.982 GR
- GR value (Flavopiridol [6]; 0.0003162 µM): 0.93 GR
- GR value (Flavopiridol [6]; 0.001 µM): 0.925 GR
- GR value (Flavopiridol [6]; 0.003162 µM): 0.954 GR
- GR value (Flavopiridol [6]; 0.01 µM): 0.927 GR
- GR value (Flavopiridol [6]; 0.03162 µM): 0.914 GR
- GR value (Flavopiridol [6]; 0.1 µM): 0.559 GR
- GR value (Flavopiridol [6]; 0.3162 µM): 0.0326 GR
- GR value (Flavopiridol [6]; 1 µM): -0.182 GR
- GR value ([7]; 0.0001 µM): 1.04 GR
- GR value ([7]; 0.0003162 µM): 1.02 GR
- GR value ([7]; 0.001 µM): 0.991 GR
- GR value ([7]; 0.003162 µM): 1.01 GR
- GR value ([7]; 0.01 µM): 0.796 GR
- GR value ([7]; 0.03162 µM): -0.122 GR
- GR value ([7]; 0.1 µM): -0.194 GR
- GR value ([7]; 0.3162 µM): -0.203 GR
- GR value ([7]; 1 µM): -0.209 GR
- GR value (LEE011/Ribociclib; 0.001 µM): 0.91 GR
- GR value (LEE011/Ribociclib; 0.003162 µM): 0.911 GR
- GR value (LEE011/Ribociclib; 0.01 µM): 0.822 GR
- GR value (LEE011/Ribociclib; 0.03162 µM): 0.806 GR
- GR value (LEE011/Ribociclib; 0.1 µM): 0.758 GR
- GR value (LEE011/Ribociclib; 0.3162 µM): 0.722 GR
- GR value (LEE011/Ribociclib; 1 µM): 0.728 GR
- GR value (LEE011/Ribociclib; 3.162 µM): 0.633 GR
- GR value (LEE011/Ribociclib; 10 µM): 0.562 GR
- GR value (THZ531; 0.0001 µM): 1.03 GR
- GR value (THZ531; 0.0003162 µM): 0.991 GR
- GR value (THZ531; 0.001 µM): 0.943 GR
- GR value (THZ531; 0.003162 µM): 1.01 GR
- GR value (THZ531; 0.01 µM): 1.07 GR
- GR value (THZ531; 0.03162 µM): 1.08 GR
- GR value (THZ531; 0.1 µM): 0.915 GR
- GR value (THZ531; 0.3162 µM): 0.506 GR
- GR value (THZ531; 1 µM): -0.133 GR
- GR value ([8]; 0.001 µM): 0.924 GR
- GR value ([8]; 0.003162 µM): 0.888 GR
- GR value ([8]; 0.01 µM): 0.831 GR
- GR value ([8]; 0.03162 µM): 0.727 GR
- GR value ([8]; 0.1 µM): 0.611 GR
- GR value ([8]; 0.3162 µM): 0.56 GR
- GR value ([8]; 1 µM): 0.439 GR
- GR value ([8]; 3.162 µM): 0.343 GR
- GR value ([8]; 10 µM): 0.284 GR
